Measurements taken from patent publication US7977364B2, “Indazoles, benzisoxazoles and benzisothiazoles and their use as estrogenic agents” (Laboratoire Thermamex, priority 2004, dated 2011).
Read-outs that look alike come from different tables or passages of the source.

Assays:
[1] = target: purified full-length recombinant human ERβ (Homo sapiens, UniProt Q92731); assay: Estrogen receptor β competitive radiometric binding assay ([3H]-E2)
Description: Relative binding affinities (RBA) were determined by competitive radiometric binding assays, using purified full-length recombinant human ERα and ERβ (PanVera, Madison, Wis.). […] After shaking for a few seconds and centrifugation at 1500 g and 4° C. for 10 minutes, 150 μl/well of Optiphase ‘Super Mix’ scintillation liquid was mixed with 50 μl of supernatant of each sample and the radioactivity was measured in a MicroBeta counter (Wallac, Turku, Finland). Data were evaluated by a sigmoidal dose-response curve (Prism, GraphPad Software Inc.) to estimate the concentration of competitor at half-maximal specific binding (IC50). […] The selectivity for ERα and ERβ was obtained from the ratio R of the IC50 for ERα to the IC50 for ERβ for each test compound.

ovariectomized rats [2] = conditions: rat, in vivo
rats = assay: Forced swimming test (antidepressant activity, immobility duration); type: in vivo, rat
Description: Antidepressant effect of estradiol was recently reported in studies using ER β KO mice model. In addition, ER β localization in dorsal raphe nucleus area in rat has been described. The gold standard test for antidepressant potency of compound consist in the forced swimming test, in this experiment antidepressants could be distinguished from psychostimulants which decreased immobility at doses which increased general activity. In order to investigate the putative antidepressant potency of the compounds reported here, the forced swimming test was performed according to the following design. The animals were housed six per cage under standard colony conditions, with a 12 h light/dark cycle and ad libitum food and water. They were allowed to acclimatize to the colony for at least 7 days prior to any experimentation. For subcutaneous administration, the compound of Example 23 was dissolved in olive oil and diluted to the desired concentration on the day of administration. For positive control, intraperitoneal (i.p.) injection of desipramine was done. Desipramine was dissolved in double-distilled water (10 mg/kg). The experiments were conducted 30 min after the positive control drug treatment (only for desipramine treatment). Other compounds, ie: estradiol and the compound of Example 23 were daily injected subcutaneously in rats, during a 7 days period. Acquisition were performed on day 8 (24 h after the last administration of items) and day 9 (48 h after estradiol or compound 23 administration), respectively. Data acquired 24 hours after the last administration consisted in the “naïve animal group”, these animals had never been previously tested in the device. Data acquired 48 hours after a last administration of compounds consisted in “trained animal group”.
On the 8th, the forced swim test was performed. This study was carried out in rats according to the methods described by Porsolt (Eur. J. Pharm., 1978). Briefly, rats were placed individually in glass cylinders (height: 40 cm, diameter: 18 cm) containing 25 cm of water at 25° C. Ten minutes later, rats were removed and dried before being returned to their home cages. The animals were replaced in the cylinders 24 h later, and the procedure was repeated, and a 10-min observation period was recorded.

[3] = test system: human breast cancer cell line MCF-7; assay: Proliferative activity in vitro (ATP luminescence, 6 days); type: cell-based; conditions: Homo sapiens, MCF7, 144 h
In short: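 Proliferative (estrogen-like) response of MCF-7 cells held in phenol red-free DMEM with 5% charcoal-stripped serum, seeded at 4.10^3 cells/well. Compounds in estrogen-free DMEM for six days at 37 °C. Viable cells by ATP luciferase luminescence as % of control; EC50 from sigmoidal dose-response curves.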

ovariectomized rats [4] = assay: Hot flush model in vivo: tail skin temperature, uteri and body weight
Prepubescent female rats = assay: Estrogenic / uterotrophic activity in vivo (uterus wet weight); set-up: species or system rat; conditions: for change in vivo at 3 mg: orally 3 mg/rat/day for 3 days
In short: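 Prepubescent female rats dosed orally for 3 days at 3 mg/rat/day, or at 0.3, 1, 3 or 10 mg/rat/day. Uteri removed the following day and wet-weighed; values given as % stimulation of uterine weight over vehicle.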

Chain of purified full-length recombinant human ERβ (Q92731 whole entry): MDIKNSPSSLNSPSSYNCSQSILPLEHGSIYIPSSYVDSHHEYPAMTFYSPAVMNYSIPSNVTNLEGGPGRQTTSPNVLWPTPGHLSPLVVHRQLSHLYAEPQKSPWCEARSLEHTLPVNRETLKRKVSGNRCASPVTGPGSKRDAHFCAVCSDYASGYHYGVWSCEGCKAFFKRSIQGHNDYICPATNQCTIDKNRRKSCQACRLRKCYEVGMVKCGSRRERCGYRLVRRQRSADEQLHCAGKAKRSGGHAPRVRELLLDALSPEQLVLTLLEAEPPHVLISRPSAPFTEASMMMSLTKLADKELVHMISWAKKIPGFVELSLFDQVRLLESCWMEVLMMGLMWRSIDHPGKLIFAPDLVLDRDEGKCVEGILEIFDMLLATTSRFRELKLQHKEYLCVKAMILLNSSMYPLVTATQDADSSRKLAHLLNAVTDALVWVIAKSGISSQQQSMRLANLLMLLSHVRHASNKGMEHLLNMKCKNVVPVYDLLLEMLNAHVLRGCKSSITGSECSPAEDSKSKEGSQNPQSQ

Oc1ccc2c(C3CCCC3)n[nH]c2c1 [Ex 23, 3-cyclopentyl-1H-indazol-6-ol]
IC50 [1]: 41.8 ± 7.1 nM
ligand to estrogen receptor beta ([1]; in words): potent ligand
selectivity for the human recombinant estrogen receptor β ([1]; in words): marked selectivity
RBA (%) Mean ± S.E.M, ER β ([1]; ratio of IC50s of E2 and competitor, E2 set at 100%): 10.4 ± 4.0%
R (IC50s) αβ ([1]; ratio of the IC50 for ERα to the IC50 for ERβ): 31.9
side-effects on uteri (ovariectomized rats [2]): without deleterious side-effects on uteri
immobility duration, Naïve animals (rats; 2.8 mg/rat/day s.c. 7 days, 24 h after last administration, 10 minutes test): 45.2 ± 15.6 s
immobility duration, Trained animals (rats; 2.8 mg/rat/day s.c. 7 days, 48 h after last administration, 10 minutes test): 160.7 ± 44.1 s
antidepressor activity, animals first-in-the-test (rats; 24 h after administration, in words): exhibited a antidepressor activity
antidepressor potency, trained animal group (rats; 48 h after administration, in words): disappeared
activity at 1 µM ([3]; MCF-7, 10^−6 M, six days, read-out: Effect at 10^−6 M (% of control)): 176%
activity at 0.01 µM ([3]; MCF-7, 10^−8 M, six days, read-out: Effect at 10^−8 M (% of control)): 81.7%
EC50 ([3]; MCF-7, six days, read-out: Cell proliferation EC50 (nM) ± S.E.M): 376 ± 70.1 nM
TST Variation day 1 vs day 0 (ovariectomized rats [4]; 0.3 mg/rat/day): −0.8 C. °
TST Variation day 4 vs day 0 (ovariectomized rats [4]; 0.3 mg/rat/day): −2.1 C. °
TST Variation day 7 vs day 0 (ovariectomized rats [4]; 0.3 mg/rat/day): −1.9 C. °
tail skin temperature of ovariectomized rat (ovariectomized rats [4]; in words): decreased tail skin temperature
change in vivo at 3 mg (Prepubescent female rats; Rattus norvegicus, po, 72 h, Table 4, read-out: % stimulation vs vehicle (uterus weight)): 12%
change in vivo at 0.3 mg (Prepubescent female rats; Rattus norvegicus, po, 72 h, Table 5, orally 0.3 mg/rat/day for 3 days, read-out: % stimulation vs vehicle (uterus weight)): -13%
change in vivo at 1 mg (Prepubescent female rats; Rattus norvegicus, po, 72 h, Table 5, orally 1 mg/rat/day for 3 days, read-out: % stimulation vs vehicle (uterus weight)): -5%
change in vivo at 3 mg (Prepubescent female rats; Rattus norvegicus, po, 72 h, Table 5, read-out: % stimulation vs vehicle (uterus weight)): -4%
change in vivo at 10 mg (Prepubescent female rats; Rattus norvegicus, po, 72 h, Table 5, orally 10 mg/rat/day for 3 days, read-out: % stimulation vs vehicle (uterus weight)): 20%
in vivo estrogenic activity after oral administration (Prepubescent female rats; in words): weak in vivo estrogenic activity
uterotrophicity after oral administration (Prepubescent female rats; up to a 3 mg/animal/day dosage, in words): lack of uterotrophicity
